Laboratory results taken from ChEMBL document CHEMBL1201861, “Genomics of Drug Sensitity in Cancer screening data, Wellcome Trust Sanger Institute”.

Legend:
Assay in all cases: cells
Format in all cases: functional, cell-based
Details in all cases: Homo sapiens
[1] = system: KS-1;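 note: growth inhibition of KS-1 cells, read out with a cell viability assay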
Description: SANGER: Inhibition of human KS-1 cell growth in a cell viability assay.

[2] = system: TE-5;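 note: inhibition of cell growth, read out by a cell viability assay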
Description: SANGER: Inhibition of human TE-5 cell growth in a cell viability assay.

[3] = system: MOLT-16;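 note: growth inhibition of human MOLT-16 cells, read out with a cell viability assay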
Description: SANGER: Inhibition of human MOLT-16 cell growth in a cell viability assay.

[4] = system: ES1;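 note: growth inhibition of ES1 cells, read out with a cell viability assay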
Description: SANGER: Inhibition of human ES1 cell growth in a cell viability assay.

[5] = system: ATN-1;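 note: growth inhibition of human ATN-1 cells, read out with a cell viability assay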
Description: SANGER: Inhibition of human ATN-1 cell growth in a cell viability assay.

[6] = system: CGTH-W-1;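 note: growth inhibition of human CGTH-W-1 cells measured by cell viability assay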
Description: SANGER: Inhibition of human CGTH-W-1 cell growth in a cell viability assay.

[7] = system: CTB-1
Description: SANGER: Inhibition of human CTB-1 cell growth in a cell viability assay.

[8] = system: SK-PN-DW;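 note: growth inhibition measured with a viability assay on these cells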
Description: SANGER: Inhibition of human SK-PN-DW cell growth in a cell viability assay.

[9] = system: 8-MG-BA;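 note: growth inhibition of 8-MG-BA cells, read out with a cell viability assay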
Description: SANGER: Inhibition of human 8-MG-BA cell growth in a cell viability assay.

[10] = system: KINGS-1;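 note: cell viability assay measuring suppression of KINGS-1 cell growth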
Description: SANGER: Inhibition of human KINGS-1 cell growth in a cell viability assay.

[11] = system: NTERA-2-cl-D1;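 note: inhibition of cell growth, measured with a cell viability assay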
Description: SANGER: Inhibition of human NTERA-S-cl-D1 cell growth in a cell viability assay.

[12] = system: SK-MEL-1;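 note: growth inhibition of human SK-MEL-1 cells, read out by a cell viability assay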
Description: SANGER: Inhibition of human SK-MEL-1 cell growth in a cell viability assay.

[13] = system: EW-1;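 note: growth inhibition of the human EW-1 cell line, read out by a cell viability assay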
Description: SANGER: Inhibition of human EW-1 cell growth in a cell viability assay.

[14] = system: EC-GI-10
Description: SANGER: Inhibition of human EC-GI-10 cell growth in a cell viability assay.

[15] = system: LOX IMVI
Description: SANGER: Inhibition of human LOXIMVI cell growth in a cell viability assay.

[16] = system: LS-1034
Description: SANGER: Inhibition of human LS-1034 cell growth in a cell viability assay.

[17] = system: NCI-H209;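 note: growth inhibition of human NCI-H209 cells, measured by a cell viability assay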
Description: SANGER: Inhibition of human NCI-H209 cell growth in a cell viability assay.

[18] = system: COLO-824
Description: SANGER: Inhibition of human COLO-824 cell growth in a cell viability assay.

[19] = system: OMC-1;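 note: growth inhibition of the OMC-1 cell line, measured by a cell viability assay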
Description: SANGER: Inhibition of human OMC-1 cell growth in a cell viability assay.

[20] = system: LC-2-ad;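 note: growth inhibition of human LC-2-ad cells, read out with a cell viability assay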
Description: SANGER: Inhibition of human LC-2-ad cell growth in a cell viability assay.

[21] = system: VA-ES-BJ;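 note: growth inhibition of the VA-ES-BJ cell line, read out by a cell viability assay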
Description: SANGER: Inhibition of human VA-ES-BJ cell growth in a cell viability assay.

[22] = system: TE-10;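 note: growth inhibition of TE-10 cells, measured by a cell viability assay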
Description: SANGER: Inhibition of human TE-10 cell growth in a cell viability assay.

[23] = system: GOTO;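 note: growth inhibition of GOTO cells, read out by a cell viability assay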
Description: SANGER: Inhibition of human GOTO cell growth in a cell viability assay.

[24] = system: MFH-ino;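 note: growth inhibition of human MFH-ino cells, read out by a cell viability assay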
Description: SANGER: Inhibition of human MFH-ino cell growth in a cell viability assay.

[25] = system: K562
Description: SANGER: Inhibition of human K-562 cell growth in a cell viability assay.

[26] = system: NCI-H1581;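 note: cell growth inhibition read out by a viability assay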
Description: SANGER: Inhibition of human NCI-H1581 cell growth in a cell viability assay.

[27] = system: A4-Fuk;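 note: growth inhibition of A4-Fuk cells, read out by a cell viability assay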
Description: SANGER: Inhibition of human A4-Fuk cell growth in a cell viability assay.

[28] = system: TGBC1TKB;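 note: growth inhibition of TGBC1TKB cells, read out by a cell viability assay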
Description: SANGER: Inhibition of human TGBC1TKB cell growth in a cell viability assay.

[29] = system: RPMI-8226
Description: SANGER: Inhibition of human RPMI-8226 cell growth in a cell viability assay.

[30] = system: A101D;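 note: growth inhibition of the cell line, measured with a viability assay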
Description: SANGER: Inhibition of human A101D cell growth in a cell viability assay.

[31] = system: 697
Description: SANGER: Inhibition of human 697 cell growth in a cell viability assay.

[32] = system: MEG-01;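 note: growth inhibition of MEG-01 cells, read out by a cell viability assay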
Description: SANGER: Inhibition of human MEG-01 cell growth in a cell viability assay.

[33] = system: KURAMOCHI;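 note: growth inhibition of KURAMOCHI cells, read out with a cell viability assay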
Description: SANGER: Inhibition of human KURAMOCHI cell growth in a cell viability assay.

[34] = system: CCRF-CEM;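 note: inhibition of CCRF-CEM cell growth, measured by a cell viability assay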
Description: SANGER: Inhibition of human CCRF-CEM cell growth in a cell viability assay.

[35] = system: EW-16;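 note: growth inhibition of human EW-16 cells, read out as cell viability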
Description: SANGER: Inhibition of human EW-16 cell growth in a cell viability assay.

[36] = system: SF-268;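 note: growth inhibition of SF-268 cells determined with a cell viability assay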
Description: SANGER: Inhibition of human SF268 cell growth in a cell viability assay.

[37] = system: NMC-G1;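 note: growth inhibition of the NMC-G1 cell line, measured with a cell viability read-out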
Description: SANGER: Inhibition of human NMC-G1 cell growth in a cell viability assay.

[38] = system: J-RT3-T3-5;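 note: cell viability assay measuring growth inhibition of human J-RT3-T3-5 cells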
Description: SANGER: Inhibition of human J-RT3-T3-5 cell growth in a cell viability assay.

[39] = system: SW982;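 note: growth inhibition of SW982 cells, read out with a cell viability assay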
Description: SANGER: Inhibition of human SW982 cell growth in a cell viability assay.

[40] = system: NCI-H1838;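 note: growth inhibition of NCI-H1838 cells, determined with a cell viability readout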
Description: SANGER: Inhibition of human NCI-H1838 cell growth in a cell viability assay.

[41] = system: NCI-H69;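 note: growth inhibition of the cell line, read out with a cell viability assay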
Description: SANGER: Inhibition of human NCI-H69 cell growth in a cell viability assay.

[42] = system: KALS-1;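 note: growth inhibition of KALS-1 cells, determined with a cell viability assay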
Description: SANGER: Inhibition of human KALS-1 cell growth in a cell viability assay.

[43] = system: JVM-2;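 note: growth inhibition of JVM-2 cells determined by a cell viability assay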
Description: SANGER: Inhibition of human JVM-2 cell growth in a cell viability assay.

[44] = system: KM-H2;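 note: growth inhibition of KM-H2 cells, read out by a cell viability assay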
Description: SANGER: Inhibition of human KM-H2 cell growth in a cell viability assay.

[45] = system: SNU-C2B;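 note: cell viability readout used to measure compound-driven suppression of SNU-C2B cell proliferation, IC50 marking half-maximal growth inhibition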
Description: SANGER: Inhibition of human SNU-C2B cell growth in a cell viability assay.

[46] = system: SW872;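 note: growth inhibition of SW872 cells, read out by a viability assay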
Description: SANGER: Inhibition of human SW872 cell growth in a cell viability assay.

[47] = system: MN-60;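 note: growth inhibition of the MN-60 cell line, determined with a cell viability assay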
Description: SANGER: Inhibition of human MN-60 cell growth in a cell viability assay.

[48] = system: KNS-42;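 note: growth inhibition of KNS-42 cells, read out with a cell viability assay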
Description: SANGER: Inhibition of human KNS-42 cell growth in a cell viability assay.

[49] = system: SCH;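 note: growth inhibition of human SCH cells, read out in a cell viability assay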
Description: SANGER: Inhibition of human SCH cell growth in a cell viability assay.

[50] = system: NCI-H226;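 note: cell viability read-out used to gauge growth inhibition of the cells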
Description: SANGER: Inhibition of human NCI-H226 cell growth in a cell viability assay.

[51] = system: AM-38;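 note: growth inhibition of AM-38 cells of human origin, read out by a cell viability assay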
Description: SANGER: Inhibition of human AM-38 cell growth in a cell viability assay.

[52] = system: LAN-6;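 note: growth inhibition of LAN-6 cells, determined with a cell viability assay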
Description: SANGER: Inhibition of human LAN-6 cell growth in a cell viability assay.

[53] = system: DU-4475
Description: SANGER: Inhibition of human DU-4475 cell growth in a cell viability assay.

[54] = system: BE-13;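 note: growth inhibition of human BE-13 cells, measured with a cell viability assay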
Description: SANGER: Inhibition of human BE-13 cell growth in a cell viability assay.

[55] = system: GI-1;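 note: growth inhibition of human GI-1 cells, measured with a cell viability readout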
Description: SANGER: Inhibition of human GI-1 cell growth in a cell viability assay.

[56] = system: HT
Description: SANGER: Inhibition of human HT cell growth in a cell viability assay.

[57] = system: KLE;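 note: growth inhibition of human KLE cells, read out with a cell viability assay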
Description: SANGER: Inhibition of human KLE cell growth in a cell viability assay.

[58] = system: U-266
Description: SANGER: Inhibition of human U-266 cell growth in a cell viability assay.

[59] = system: SK-NEP-1;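 note: growth inhibition of human SK-NEP-1 cells, read out by a cell viability assay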
Description: SANGER: Inhibition of human SK-NEP-1 cell growth in a cell viability assay.

[60] = system: no-11;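 note: growth inhibition of human NO-11 cells, read out with a cell viability assay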
Description: SANGER: Inhibition of human no-11 cell growth in a cell viability assay.

[61] = system: SJSA-1;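 note: growth inhibition of human SJSA-1 cells, read out through a cell viability measurement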
Description: SANGER: Inhibition of human SJSA-1 cell growth in a cell viability assay.

[62] = system: NCI-H1648
Description: SANGER: Inhibition of human NCI-H1648 cell growth in a cell viability assay.

[63] = system: K5
Description: SANGER: Inhibition of human K5 cell growth in a cell viability assay.

[64] = system: MMAC-SF
Description: SANGER: Inhibition of human MMAC-SF cell growth in a cell viability assay.

[65] = system: ONS-76
Description: SANGER: Inhibition of human ONS-76 cell growth in a cell viability assay.

[66] = system: ACN
Description: SANGER: Inhibition of human ACN cell growth in a cell viability assay.

Cn1cc(/C=C2\C(=O)Nc3cccnc32)c2ccccc21
IC50 [1]: > 2000 nM
IC50 [2]: > 2000 nM
IC50 [3]: > 2000 nM
IC50 [4]: > 2000 nM
IC50 [5]: > 2000 nM
IC50 [6]: > 2000 nM
IC50 [7]: > 2000 nM
IC50 [8]: > 2000 nM
IC50 [9]: > 2000 nM
IC50 [10]: > 2000 nM
IC50 [11]: > 2000 nM
IC50 [12]: > 2000 nM
IC50 [13]: > 2000 nM
IC50 [14]: > 2000 nM
IC50 [15]: > 2000 nM
IC50 [16]: > 2000 nM
IC50 [17]: > 2000 nM
IC50 [18]: > 2000 nM
IC50 [19]: > 2000 nM
IC50 [20]: > 2000 nM
IC50 [21]: > 2000 nM
IC50 [22]: > 2000 nM
IC50 [23]: > 2000 nM
IC50 [24]: > 2000 nM
IC50 [25]: > 2000 nM
IC50 [26]: > 2000 nM
IC50 [27]: > 2000 nM
IC50 [28]: > 2000 nM
IC50 [29]: > 2000 nM
IC50 [30]: > 2000 nM
IC50 [31]: > 2000 nM
IC50 [32]: > 2000 nM
IC50 [33]: > 2000 nM
IC50 [34]: > 2000 nM
IC50 [35]: > 2000 nM
IC50 [36]: > 2000 nM
IC50 [37]: > 2000 nM
IC50 [38]: > 2000 nM
IC50 [39]: > 2000 nM
IC50 [40]: > 2000 nM
IC50 [41]: > 2000 nM
IC50 [42]: > 2000 nM
IC50 [43]: > 2000 nM
IC50 [44]: > 2000 nM
IC50 [45]: > 2000 nM
IC50 [46]: > 2000 nM
IC50 [47]: > 2000 nM
IC50 [48]: > 2000 nM
IC50 [49]: > 2000 nM
IC50 [50]: > 2000 nM
IC50 [51]: > 2000 nM
IC50 [52]: > 2000 nM
IC50 [53]: > 2000 nM
IC50 [54]: > 2000 nM
IC50 [55]: > 2000 nM
IC50 [56]: > 2000 nM
IC50 [57]: > 2000 nM
IC50 [58]: > 2000 nM
IC50 [59]: > 2000 nM
IC50 [60]: > 2000 nM
IC50 [61]: > 2000 nM
IC50 [62]: > 2000 nM
IC50 [63]: > 2000 nM
IC50 [64]: > 2000 nM
IC50 [65]: > 2000 nM
IC50 [66]: 865 nM

C/C(O)=C(\C#N)C(=O)Nc1cc(Br)ccc1Br
IC50 [1]: > 16000 nM
IC50 [2]: > 16000 nM
IC50 [3]: > 16000 nM
IC50 [4]: > 16000 nM
IC50 [5]: > 16000 nM
IC50 [6]: > 16000 nM
IC50 [7]: > 16000 nM
IC50 [8]: > 16000 nM
IC50 [9]: > 16000 nM
IC50 [10]: > 16000 nM
IC50 [11]: > 16000 nM
IC50 [12]: > 16000 nM
IC50 [13]: > 16000 nM
IC50 [14]: > 16000 nM
IC50 [15]: > 16000 nM
IC50 [16]: > 16000 nM
IC50 [17]: > 16000 nM
IC50 [18]: > 16000 nM
IC50 [19]: > 16000 nM
IC50 [20]: > 16000 nM
IC50 [21]: > 16000 nM
IC50 [22]: > 16000 nM
IC50 [23]: > 16000 nM
IC50 [24]: > 16000 nM
IC50 [25]: > 16000 nM
IC50 [26]: > 16000 nM
IC50 [27]: > 16000 nM
IC50 [28]: > 16000 nM
IC50 [29]: > 16000 nM
IC50 [30]: > 16000 nM
IC50 [31]: > 16000 nM
IC50 [32]: > 16000 nM
IC50 [33]: > 16000 nM
IC50 [34]: > 16000 nM
IC50 [35]: > 16000 nM
IC50 [36]: > 16000 nM
IC50 [37]: > 16000 nM
IC50 [38]: > 16000 nM
IC50 [39]: > 16000 nM
IC50 [40]: > 16000 nM
IC50 [41]: > 16000 nM
IC50 [42]: > 16000 nM
IC50 [43]: > 16000 nM
IC50 [44]: > 16000 nM
IC50 [45]: > 16000 nM
IC50 [46]: > 16000 nM
IC50 [47]: > 16000 nM
IC50 [48]: > 16000 nM
IC50 [49]: > 16000 nM
IC50 [50]: > 16000 nM
IC50 [51]: > 16000 nM
IC50 [52]: > 16000 nM
IC50 [53]: > 16000 nM
IC50 [54]: > 16000 nM
IC50 [55]: > 16000 nM
IC50 [56]: > 16000 nM
IC50 [57]: > 16000 nM
IC50 [58]: > 16000 nM
IC50 [59]: > 16000 nM
IC50 [60]: > 16000 nM
IC50 [61]: > 16000 nM
IC50 [62]: > 16000 nM
IC50 [63]: > 16000 nM
IC50 [64]: > 16000 nM
IC50 [65]: > 16000 nM
IC50 [66]: > 16000 nM

O=c1[nH]c2ccccc2n1C1CCN(Cc2ccc(-c3nc4cc5[nH]cnc5cc4nc3-c3ccccc3)cc2)CC1
IC50 [1]: > 2560 nM
IC50 [2]: > 2560 nM
IC50 [3]: > 2560 nM
IC50 [4]: > 2560 nM
IC50 [5]: > 2560 nM
IC50 [6]: > 2560 nM
IC50 [7]: > 2560 nM
IC50 [8]: > 2560 nM
IC50 [9]: > 2560 nM
IC50 [10]: > 2560 nM
IC50 [11]: > 2560 nM
IC50 [12]: > 2560 nM
IC50 [13]: > 2560 nM
IC50 [14]: > 2560 nM
IC50 [15]: > 2560 nM
IC50 [16]: > 2560 nM
IC50 [17]: > 2560 nM
IC50 [18]: > 2560 nM
IC50 [19]: > 2560 nM
IC50 [20]: > 2560 nM
IC50 [21]: > 2560 nM
IC50 [22]: > 2560 nM
IC50 [23]: > 2560 nM
IC50 [24]: > 2560 nM
IC50 [25]: > 2560 nM
IC50 [26]: > 2560 nM
IC50 [27]: 1860 nM
IC50 [28]: > 2560 nM
IC50 [29]: > 2560 nM
IC50 [30]: > 2560 nM
IC50 [31]: > 2560 nM
IC50 [32]: > 2560 nM
IC50 [33]: 2310 nM
IC50 [34]: > 2560 nM
IC50 [35]: > 2560 nM
IC50 [36]: > 2560 nM
IC50 [37]: > 2560 nM
IC50 [38]: > 2560 nM
IC50 [39]: > 2560 nM
IC50 [40]: > 2560 nM
IC50 [41]: > 2560 nM
IC50 [42]: > 2560 nM
IC50 [43]: > 2560 nM
IC50 [44]: > 2560 nM
IC50 [45]: > 2560 nM
IC50 [46]: > 2560 nM
IC50 [47]: > 2560 nM
IC50 [48]: > 2560 nM
IC50 [49]: > 2560 nM
IC50 [50]: > 2560 nM
IC50 [51]: > 2560 nM
IC50 [52]: > 2560 nM
IC50 [53]: > 2560 nM
IC50 [54]: > 2560 nM
IC50 [55]: > 2560 nM
IC50 [56]: > 2560 nM
IC50 [57]: > 2560 nM
IC50 [58]: > 2560 nM
IC50 [59]: > 2560 nM
IC50 [60]: > 2560 nM
IC50 [61]: > 2560 nM
IC50 [62]: > 2560 nM
IC50 [63]: > 2560 nM
IC50 [64]: > 2560 nM
IC50 [65]: > 2560 nM
IC50 [66]: > 2560 nM

Fc1cc(-c2cc[nH]/c(=N/c3ccc(-n4cnc(N5CCOCC5)n4)cc3)n2)cc(N2CCOCC2)c1
IC50 [1]: 159 nM
IC50 [2]: 339 nM
IC50 [3]: 733 nM
IC50 [4]: 685 nM
IC50 [5]: 505 nM
IC50 [6]: 82.5 nM
IC50 [7]: 1110 nM
IC50 [8]: 669 nM
IC50 [9]: 116 nM
IC50 [10]: > 5120 nM
IC50 [11]: 316 nM
IC50 [12]: 1330 nM
IC50 [13]: 546 nM
IC50 [14]: 2240 nM
IC50 [15]: 477 nM
IC50 [16]: 1920 nM
IC50 [17]: 1260 nM
IC50 [18]: 637 nM
IC50 [19]: 3970 nM
IC50 [20]: 350 nM
IC50 [21]: 205 nM
IC50 [22]: 305 nM
IC50 [23]: 809 nM
IC50 [24]: 1040 nM
IC50 [25]: > 5120 nM
IC50 [26]: 1340 nM
IC50 [27]: 972 nM
IC50 [28]: 1880 nM
IC50 [29]: 1030 nM
IC50 [30]: 245 nM
IC50 [31]: 373 nM
IC50 [32]: 684 nM
IC50 [33]: 598 nM
IC50 [34]: 364 nM
IC50 [35]: 451 nM
IC50 [36]: 537 nM
IC50 [37]: 1100 nM
IC50 [38]: 689 nM
IC50 [39]: 121 nM
IC50 [40]: > 5120 nM
IC50 [41]: 1180 nM
IC50 [42]: 451 nM
IC50 [43]: 3300 nM
IC50 [44]: 1360 nM
IC50 [45]: 637 nM
IC50 [46]: 539 nM
IC50 [47]: 894 nM
IC50 [48]: 1090 nM
IC50 [49]: 3250 nM
IC50 [50]: 1430 nM
IC50 [51]: 1110 nM
IC50 [52]: 1770 nM
IC50 [53]: 569 nM
IC50 [54]: 1100 nM
IC50 [55]: 171 nM
IC50 [56]: 633 nM
IC50 [57]: 1810 nM
IC50 [58]: 882 nM
IC50 [59]: 550 nM
IC50 [60]: 1350 nM
IC50 [61]: 251 nM
IC50 [62]: 473 nM
IC50 [63]: 830 nM
IC50 [64]: 2480 nM
IC50 [65]: 396 nM
IC50 [66]: 78.6 nM
